In US20260297081A1, “COMPOUNDS AND METHODS OF TREATING CANCERS” (Cullgen Inc., priority 2023, published 2026):

Molecular target: CDK4 (Homo sapiens, UniProt P11802+Q16531)
Experiment: CDK4 percentage degradation in Calu-1 cells (Table 6)
Assay type: cell-based
Design: Cells that express cyclin D1-3 and CDK4/6 proteins were treated with heterobifunctional compounds; endogenous in cells; host or cells: Calu-1
Conditions: 16 hours; for inhibition at 0.04 µM: 40 nM; for inhibition at 0.2 µM: 200 nM
In short: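 Calu-1 cells exposed to heterobifunctional compounds at 40 nM or 200 nM for 16 h. Cyclin D1 and CDK4 levels measured by Western blot of RIPA lysates (BCA-normalised loading), bands quantified by densitometry and expressed as percentage degradation.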

CDK4, sequence (P11802 2-303 limits assumed): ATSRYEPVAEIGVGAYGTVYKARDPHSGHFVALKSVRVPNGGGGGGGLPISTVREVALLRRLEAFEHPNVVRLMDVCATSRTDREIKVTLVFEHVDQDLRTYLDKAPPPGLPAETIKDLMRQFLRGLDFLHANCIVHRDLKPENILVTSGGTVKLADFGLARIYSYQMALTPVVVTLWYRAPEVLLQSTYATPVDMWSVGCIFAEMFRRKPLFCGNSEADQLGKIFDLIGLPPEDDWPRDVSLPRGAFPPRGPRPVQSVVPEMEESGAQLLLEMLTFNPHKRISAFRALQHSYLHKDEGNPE
CDK4, sequence (P24385 whole entry partner): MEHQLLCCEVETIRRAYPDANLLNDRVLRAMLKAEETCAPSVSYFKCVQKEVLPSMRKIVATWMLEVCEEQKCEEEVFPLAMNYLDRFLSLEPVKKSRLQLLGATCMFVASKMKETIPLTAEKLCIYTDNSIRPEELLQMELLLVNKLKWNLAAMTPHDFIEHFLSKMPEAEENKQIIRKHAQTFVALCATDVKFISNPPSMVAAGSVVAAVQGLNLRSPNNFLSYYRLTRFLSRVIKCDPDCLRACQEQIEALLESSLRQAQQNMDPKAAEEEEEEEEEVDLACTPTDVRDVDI
CDK4, sequence (Q16531 2-1140 limits assumed): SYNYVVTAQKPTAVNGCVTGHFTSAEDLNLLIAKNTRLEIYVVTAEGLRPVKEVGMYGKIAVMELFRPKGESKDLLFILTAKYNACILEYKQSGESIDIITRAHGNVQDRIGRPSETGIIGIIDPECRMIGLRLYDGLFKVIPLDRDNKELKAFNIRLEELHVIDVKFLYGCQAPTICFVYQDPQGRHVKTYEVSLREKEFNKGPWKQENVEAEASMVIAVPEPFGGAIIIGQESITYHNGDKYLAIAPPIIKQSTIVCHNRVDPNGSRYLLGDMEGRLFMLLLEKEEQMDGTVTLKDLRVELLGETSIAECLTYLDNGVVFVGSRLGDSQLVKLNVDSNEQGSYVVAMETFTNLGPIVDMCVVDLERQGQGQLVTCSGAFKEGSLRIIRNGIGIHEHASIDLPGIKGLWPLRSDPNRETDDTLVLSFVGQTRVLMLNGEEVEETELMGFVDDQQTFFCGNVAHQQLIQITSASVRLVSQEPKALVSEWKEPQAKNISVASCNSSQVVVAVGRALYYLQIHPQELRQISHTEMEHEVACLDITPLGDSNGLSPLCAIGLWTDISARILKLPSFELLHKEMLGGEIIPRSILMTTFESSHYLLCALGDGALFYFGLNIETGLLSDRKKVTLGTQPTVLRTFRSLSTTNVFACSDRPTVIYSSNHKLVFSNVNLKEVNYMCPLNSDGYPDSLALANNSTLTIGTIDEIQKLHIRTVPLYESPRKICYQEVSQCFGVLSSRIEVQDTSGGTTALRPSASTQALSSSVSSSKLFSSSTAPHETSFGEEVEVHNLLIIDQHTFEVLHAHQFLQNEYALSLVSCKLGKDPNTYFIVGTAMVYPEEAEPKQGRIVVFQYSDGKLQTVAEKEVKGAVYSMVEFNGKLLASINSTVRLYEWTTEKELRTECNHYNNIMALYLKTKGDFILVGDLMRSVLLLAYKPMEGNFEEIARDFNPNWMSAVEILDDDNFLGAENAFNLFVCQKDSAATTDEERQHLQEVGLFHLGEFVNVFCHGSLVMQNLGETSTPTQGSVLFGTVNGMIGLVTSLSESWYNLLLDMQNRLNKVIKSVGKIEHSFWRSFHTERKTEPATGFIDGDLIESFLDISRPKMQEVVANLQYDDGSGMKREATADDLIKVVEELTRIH

Row | Compound | inhibition at 0.04 µM [%] | inhibition at 0.2 µM [%]
1 | CNc1ccc(C(=O)Nc2ccc(N(C)C)nn2)c(NC2CC(CC(=O)N3CCN(c4ccc(Nc5ncc6c(C)c(C(C)=O)c(=O)n(C7CCCC7)c6n5)nc4)CC3)C2)n1 (centres unmarked) [CPD-148, 2-((3-(2-(4-(6-((6-acetyl-8-cyclopentyl-5-methyl-7-oxo-7,8-dihydropyrido[2,3-d]pyrimidin-2-yl)amino)pyridin-3-yl)piperazin-1-yl)-2-oxoethyl)cyclobutyl)amino)-N-(6-(dimethylamino)pyridazin-3-yl)-6-(methylamino)nicotinamide] | 50 to 80 | > 80
2 | CNc1ccc(C(=O)Nc2ccc(N(C)C)nn2)c(NC2CC(NC(=O)CN3CCN(c4ccc(Nc5ncc6c(C)c(C(C)=O)c(=O)n(C7CCCC7)c6n5)nc4)CC3)C2)n1 (centres unmarked) [CPD-149, 2-((3-(2-(4-(6-((6-acetyl-8-cyclopentyl-5-methyl-7-oxo-7,8-dihydropyrido[2,3-d]pyrimidin-2-yl)amino)pyridin-3-yl)piperazin-1-yl)acetamido)cyclobutyl)amino)-N-(6-(dimethylamino)pyridazin-3-yl)-6-(methylamino)nicotinamide] | 30 to 50 | 50 to 80
3 | CNc1ccc(C(=O)Nc2ccc(N(C)C)nn2)c(NC2CC(NC(=O)N3CCN(c4ccc(Nc5ncc6c(C)c(C(C)=O)c(=O)n(C7CCCC7)c6n5)nc4)CC3)C2)n1 (centres unmarked) [CPD-151, 4-(6-((6-acetyl-8-cyclopentyl-5-methyl-7-oxo-7,8-dihydropyrido[2,3-d]pyrimidin-2-yl)amino)pyridin-3-yl)-N-(3-((3-((6-(dimethylamino)pyridazin-3-yl)carbamoyl)-6-(methylamino)pyridin-2-yl)amino)cyclobutyl)piperazine-1-carboxamide] | 50 to 80 | > 80
4 | CNc1ccc(C(=O)Nc2cn(C)cn2)c(NC2CC3(CC(NC(=O)CN4CCN(c5ccc(Nc6ncc7c(C)c(C(C)=O)c(=O)n(C8CCCC8)c7n6)nc5)CC4)C3)C2)n1 (centres unmarked) [CPD-152, 2-((6-(2-(4-(6-((6-acetyl-8-cyclopentyl-5-methyl-7-oxo-7,8-dihydropyrido[2,3-d]pyrimidin-2-yl)amino)pyridin-3-yl)piperazin-1-yl)acetamido)spiro[3.3]heptan-2-yl)amino)-N-(1-methyl-1H-imidazol-4-yl)-6-(methylamino)nicotinamide] | 30 to 50 | 50 to 80
5 | CNc1ccc(C(=O)Nc2ccnn2C)c(NC2CC3(CC(NC(=O)CN4CCN(c5ccc(Nc6ncc7c(C)c(C(C)=O)c(=O)n(C8CCCC8)c7n6)nc5)CC4)C3)C2)n1 (centres unmarked) [CPD-153, 2-((6-(2-(4-(6-((6-acetyl-8-cyclopentyl-5-methyl-7-oxo-7,8-dihydropyrido[2,3-d]pyrimidin-2-yl)amino)pyridin-3-yl)piperazin-1-yl)acetamido)spiro[3.3]heptan-2-yl)amino)-N-(1-methyl-1H-pyrazol-5-yl)-6-(methylamino)nicotinamide] | < 30 | < 30
6 | CNc1ccc(C(=O)Nc2cccc(C3CC3)n2)c(NC[C@H]2CC[C@H](NC(=O)CN3CCN(c4ccc(Nc5ncc6c(C)c(C(C)=O)c(=O)n(C7CCCC7)c6n5)nc4)CC3)CC2)n1 [CPD-154, 2-(((trans-4-(2-(4-(6-((6-acetyl-8-cyclopentyl-5-methyl-7-oxo-7,8-dihydropyrido[2,3-d]pyrimidin-2-yl)amino)pyridin-3-yl)piperazin-1-yl)acetamido)cyclohexyl)methyl)amino)-N-(6-cyclopropylpyridin-2-yl)-6-(methylamino)nicotinamide] | < 30 | < 30
7 | CNc1ccc(C(=O)Nc2ccc(N(C)C)nn2)c(NC2CC(CCCC(=O)N3CCN(c4ccc(Nc5ncc6c(C)c(C(C)=O)c(=O)n(C7CCCC7)c6n5)nc4)CC3)C2)n1 (centres unmarked) [CPD-156, 2-((3-(4-(4-(6-((6-acetyl-8-cyclopentyl-5-methyl-7-oxo-7,8-dihydropyrido[2,3-d]pyrimidin-2-yl)amino)pyridin-3-yl)piperazin-1-yl)-4-oxobutyl)cyclobutyl)amino)-N-(6-(dimethylamino)pyridazin-3-yl)-6-(methylamino)nicotinamide] | 50 to 80 | 50 to 80
8 | CNc1ccc(C(=O)Nc2ccon2)c(NC2CC3(CC(NC(=O)CN4CCN(c5ccc(Nc6ncc7c(C)c(C(C)=O)c(=O)n(C8CCCC8)c7n6)nc5)CC4)C3)C2)n1 (centres unmarked) [CPD-159, 2-((6-(2-(4-(6-((6-acetyl-8-cyclopentyl-5-methyl-7-oxo-7,8-dihydropyrido[2,3-d]pyrimidin-2-yl)amino)pyridin-3-yl)piperazin-1-yl)acetamido)spiro[3.3]heptan-2-yl)amino)-N-(isoxazol-3-yl)-6-(methylamino)nicotinamide] | < 30 | 50 to 80

Now from value to compound:

Row | inhibition at 0.04 µM [%] | inhibition at 0.2 µM [%] | Compound
9 | 50 to 80 | > 80 | CNc1ccc(C(=O)Nc2cc(C)on2)c(NC2CC3(CC(NC(=O)CN4CCN(c5ccc(Nc6ncc7c(C)c(C(C)=O)c(=O)n(C8CCCC8)c7n6)nc5)CC4)C3)C2)n1 (centres unmarked) [CPD-160, 2-((6-(2-(4-(6-((6-acetyl-8-cyclopentyl-5-methyl-7-oxo-7,8-dihydropyrido[2,3-d]pyrimidin-2-yl)amino)pyridin-3-yl)piperazin-1-yl)acetamido)spiro[3.3]heptan-2-yl)amino)-6-(methylamino)-N-(5-methylisoxazol-3-yl)nicotinamide]
10 | 50 to 80 | > 80 | CNc1ccc(C(=O)Nc2cccc(OC)n2)c(NC2CC3(CC(NC(=O)CN4CCN(c5ccc(Nc6ncc7c(C)c(C(C)=O)c(=O)n(C8CCCC8)c7n6)nc5)CC4)C3)C2)n1 (centres unmarked) [CPD-161, 2-((6-(2-(4-(6-((6-acetyl-8-cyclopentyl-5-methyl-7-oxo-7,8-dihydropyrido[2,3-d]pyrimidin-2-yl)amino)pyridin-3-yl)piperazin-1-yl)acetamido)spiro[3.3]heptan-2-yl)amino)-N-(6-methoxypyridin-2-yl)-6-(methylamino)nicotinamide]
11 | 50 to 80 | 50 to 80 | CNc1ccc(C(=O)Nc2cccc(C3CC3)n2)c(NC2CC(CNC(=O)CN3CCN(c4ccc(Nc5ncc6c(C)c(C(C)=O)c(=O)n(C7CCCC7)c6n5)nc4)CC3)C2)n1 (centres unmarked) [CPD-162, 2-((3-((2-(4-(6-((6-acetyl-8-cyclopentyl-5-methyl-7-oxo-7,8-dihydropyrido[2,3-d]pyrimidin-2-yl)amino)pyridin-3-yl)piperazin-1-yl)acetamido)methyl)cyclobutyl)amino)-N-(6-cyclopropylpyridin-2-yl)-6-(methylamino)nicotinamide]
12 | 50 to 80 | 50 to 80 | [2H]C([2H])([2H])Nc1ccc(C(=O)Nc2cccc(C3CC3)n2)c(NC2CC3(CC(NC(=O)CN4CCN(c5ccc(Nc6ncc7c(C)c(C(C)=O)c(=O)n(C8CCCC8)c7n6)nc5)CC4)C3)C2)n1 (centres unmarked) [CPD-163, 2-((6-(2-(4-(6-((6-acetyl-8-cyclopentyl-5-methyl-7-oxo-7,8-dihydropyrido[2,3-d]pyrimidin-2-yl)amino)pyridin-3-yl)piperazin-1-yl)acetamido)spiro[3.3]heptan-2-yl)amino)-N-(6-cyclopropylpyridin-2-yl)-6-((methyl-d3)amino)nicotinamide]
13 | 50 to 80 | > 80 | CNc1ccc(C(=O)Nc2ccc(N(C)C)nn2)c(NC2CC(COCC(=O)N3CCN(c4ccc(Nc5ncc6c(C)c(C(C)=O)c(=O)n(C7CCCC7)c6n5)nc4)CC3)C2)n1 (centres unmarked) [CPD-164, 2-((3-((2-(4-(6-((6-acetyl-8-cyclopentyl-5-methyl-7-oxo-7,8-dihydropyrido[2,3-d]pyrimidin-2-yl)amino)pyridin-3-yl)piperazin-1-yl)-2-oxoethoxy)methyl)cyclobutyl)amino)-N-(6-(dimethylamino)pyridazin-3-yl)-6-(methylamino)nicotinamide]
14 | 50 to 80 | 50 to 80 | CNc1ccc(C(=O)Nc2ccc(N(C)C)nn2)c(NC2CC(CNC(=O)N3CCN(c4ccc(Nc5ncc6c(C)c(C(C)=O)c(=O)n(C7CCCC7)c6n5)nc4)CC3)C2)n1 (centres unmarked) [CPD-166, 4-(6-((6-acetyl-8-cyclopentyl-5-methyl-7-oxo-7,8-dihydropyrido[2,3-d]pyrimidin-2-yl)amino)pyridin-3-yl)-N-((3-((3-((6-(dimethylamino)pyridazin-3-yl)carbamoyl)-6-(methylamino)pyridin-2-yl)amino)cyclobutyl)methyl)piperazine-1-carboxamide]
15 | 50 to 80 | > 80 | CNc1ccc(C(=O)Nc2ccc(N(C)C)nn2)c(NC2CC(OCC(=O)N3CCN(c4ccc(Nc5ncc6c(C)c(C(C)=O)c(=O)n(C7CCCC7)c6n5)nc4)CC3)C2)n1 (centres unmarked) [CPD-168, 2-((3-(2-(4-(6-((6-acetyl-8-cyclopentyl-5-methyl-7-oxo-7,8-dihydropyrido[2,3-d]pyrimidin-2-yl)amino)pyridin-3-yl)piperazin-1-yl)-2-oxoethoxy)cyclobutyl)amino)-N-(6-(dimethylamino)pyridazin-3-yl)-6-(methylamino)nicotinamide]
16 | < 30 | 30 to 50 | CNc1ccc(C(=O)Nc2ccc(N(C)C)nn2)c(NC[C@H]2CC[C@H](CNC(=O)N3CCN(c4ccc(Nc5ncc6c(C)c(C(C)=O)c(=O)n(C7CCCC7)c6n5)nc4)CC3)CC2)n1 [CPD-169, 4-(6-((6-acetyl-8-cyclopentyl-5-methyl-7-oxo-7,8-dihydropyrido[2,3-d]pyrimidin-2-yl)amino)pyridin-3-yl)-N-((trans-4-(((3-((6-(dimethylamino)pyridazin-3-yl)carbamoyl)-6-(methylamino)pyridin-2-yl)amino)methyl)cyclohexyl)menthyl)piperazine-1-carboxamide]
